From PubChem BioAssay (NCI)
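Compound exposure: 48 hours, 5 concentrations, 96-well plates. Abbreviation: GI50, concentration required for 50% inhibition of growth. TGI: concentration producing complete growth inhibition.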

What was measured:
Assay in all cases: inhibition of tumour cell growth, NCI panel, 48 h
[1] = system: SN12C renal
[2] = system: UACC-62 melanoma
[3] = system: HT29 colon
[4] = system: SK-MEL-5 melanoma
[5] = system: UO-31 renal
[6] = system: HS 578T breast
[7] = system: PC-3 prostate
[8] = system: OVCAR-8 ovarian
[9] = system: SK-OV-3 ovarian
[10] = system: OVCAR-3 ovarian
[11] = system: EKVX NSCLC
[12] = system: IGROV1 ovarian
[13] = system: KM12 colon
[14] = system: RPMI-8226 leukemia
[15] = system: K-562 leukemia
[16] = system: HOP-62 NSCLC
[17] = system: COLO 205 colon
[18] = system: BT-549 breast
[19] = system: RXF 393 renal
[20] = system: SF-539 CNS
[21] = system: NCI-H23 lung
[22] = system: HCC-2998 colon
[23] = system: MCF7 breast
[24] = system: M14 melanoma
[25] = system: SNB-19 CNS
[26] = system: A498 renal
[27] = system: UACC-257 melanoma
[28] = system: OVCAR-4 ovarian
[29] = system: 786-0 renal
[30] = system: NCI-H522 lung
[31] = system: SR leukemia
[32] = system: SNB-75 CNS
[33] = system: MDA-MB-231 breast
[34] = system: SK-MEL-28 melanoma
[35] = system: NCI-H226 lung
[36] = system: ACHN renal
[37] = system: MDA-MB-435
[38] = system: SW-620 colon
[39] = system: MOLT-4 leukemia
[40] = system: LOX IMVI melanoma
[41] = system: CAKI-1 renal
[42] = system: NCI/ADR-RES ovarian
[43] = system: SF-268 CNS
[44] = system: HCT-116 colon
[45] = system: TK-10 renal
[46] = system: HOP-92 NSCLC
[47] = system: MALME-3M melanoma
[48] = system: OVCAR-5 ovarian
[49] = system: A549 NSCLC
[50] = system: T-47D breast
[51] = system: CCRF-CEM leukemia
[52] = system: SK-MEL-2 melanoma
[53] = system: NCI-H460 lung
[54] = system: SF-295 CNS
[55] = system: HL-60(TB) leukemia
[56] = system: HCT-15 colon
[57] = system: U251 CNS
[58] = system: DU-145 prostate

In the case of `c1ccc(-c2nnc(Nc3ccc4c(c3)OCCO4)o2)c(NCc2ccncc2)c1`, the GI50 [1] is reported as 57.9 nM, the TGI [1] is reported as > 64600 nM and the GI50 [2] is reported as 31.2 nM. The TGI [2] was > 100000 nM, the GI50 [3] was 32.1 nM and the TGI [3] was 1750 nM. For the same compound, the GI50 [4] was 25.7 nM, the TGI [4] was 153 nM and the GI50 [5] was 220 nM. The TGI [5] was 26300 nM, the GI50 [6] was 28.1 nM and the TGI [6] was > 69400 nM. The GI50 [7] was 30.1 nM, the TGI [7] was > 52700 nM and the GI50 [8] was 41.9 nM. The TGI [8] was > 42200 nM, the GI50 [9] was 19.1 nM and the TGI [9] was 85.6 nM. The GI50 [10] was 21 nM, the TGI [10] was 50.4 nM and the GI50 [11] was 105 nM. The TGI [11] was > 100000 nM, the GI50 [12] was 62.4 nM and the TGI [12] was 19100 nM. The GI50 [13] was 32.7 nM, the TGI [13] was 435 nM and the GI50 [14] was 44.5 nM. For the same compound, the TGI [14] was 7630 nM, the GI50 [15] was < 10 nM and the TGI [15] was 4430 nM. The GI50 [16] was 29.7 nM, the TGI [16] was 19900 nM and the GI50 [17] was 28.6 nM. For the same compound, the TGI [17] was 76 nM, the GI50 [18] was 58.9 nM and the TGI [18] was 7010 nM. The GI50 [19] was < 10 nM, the TGI [19] was 42.1 nM and the GI50 [20] was 28.3 nM. For the same compound, the TGI [20] was 6010 nM, the GI50 [21] was 33 nM and the TGI [21] was 6810 nM. The GI50 [22] was 29.6 nM, the TGI [22] was 1350 nM and the GI50 [23] was 90.4 nM. The TGI [23] was > 38800 nM, the GI50 [24] was 22.3 nM and the TGI [24] was 273 nM. For the same compound, the GI50 [25] was 53.6 nM, the TGI [25] was > 100000 nM and the GI50 [26] was 22.6 nM. For the same compound, the TGI [26] was 533 nM, the GI50 [27] was 3970 nM and the TGI [27] was > 62400 nM. The GI50 [28] was 81.8 nM, the TGI [28] was 21900 nM and the GI50 [29] was 75.6 nM. The TGI [29] was > 100000 nM, the GI50 [30] was < 10 nM and the TGI [30] was 860 nM. The GI50 [31] was < 10 nM, the TGI [31] was > 46500 nM and the GI50 [32] was 12.5 nM. The TGI [32] was 12100 nM, the GI50 [33] was 76.9 nM and the TGI [33] was > 100000 nM. It also gave a GI50 [34] of 41.1 nM, a TGI [34] of 39000 nM and a GI50 [35] of 26.4 nM. For the same compound, the TGI [35] was 106 nM, the GI50 [36] was 78.4 nM and the TGI [36] was 14400 nM. For the same compound, the GI50 [37] was < 10 nM, the TGI [37] was 17.1 nM and the GI50 [38] was 25.5 nM. The TGI [38] was > 100000 nM, the GI50 [39] was 48.5 nM and the TGI [39] was > 100000 nM. For the same compound, the GI50 [40] was 45.9 nM, the TGI [40] was > 100000 nM and the GI50 [41] was 160 nM. The TGI [41] was > 100000 nM, the GI50 [42] was 16.2 nM and the TGI [42] was > 51300 nM. The GI50 [43] was 69.6 nM, the TGI [43] was > 67600 nM and the GI50 [44] was 28.2 nM. The TGI [44] was 11800 nM, the GI50 [45] was 1980 nM and the TGI [45] was > 81800 nM. The GI50 [46] was 286 nM, the TGI [46] was 6870 nM and the GI50 [47] was 680 nM. For the same compound, the TGI [47] was > 67300 nM, the GI50 [48] was 90.4 nM and the TGI [48] was 79000 nM. It also gave a GI50 [49] of 38.8 nM, a TGI [49] of 15400 nM and a GI50 [50] of 1650 nM. For the same compound, the TGI [50] was 16900 nM, the GI50 [51] was 33 nM and the TGI [51] was > 100000 nM. It also gave a GI50 [52] of 160 nM, a TGI [52] of 22300 nM and a GI50 [53] of 31.3 nM. For the same compound, the TGI [53] was 15200 nM, the GI50 [54] was 13.6 nM and the TGI [54] was > 100000 nM. The GI50 [55] was 23.6 nM, the TGI [55] was 722 nM and the GI50 [56] was 36.9 nM. For the same compound, the TGI [56] was > 100000 nM, the GI50 [57] was 36.9 nM and the TGI [57] was > 35500 nM. For the same compound, the GI50 [58] was 36.3 nM and the TGI [58] was 566 nM.
